Reference: publication PMC9140068, “Generation of HepG2 Cells with High Expression of Multiple Drug-Metabolizing Enzymes for Drug Discovery Research Using a PITCh System” (Cells, 2022)

What was measured:
[1] = test system: CYPs–UGT1A1 KI-HepG2 cells
Description: The HepG2 cells were seeded in 96-well plates at 1.0 × 10^4 cells/well. […] After 24 h, to examine the cell viability, we performed a WST-8 (2-(2-methoxy-4-nitrophenyl)-3-(4-nitrophenyl)-5-(2,4-disulfophenyl)-2H-tetrazolium, monosodium salt) assay by using Cell Count Reagent SF according to the manufacturer’s instructions. The cell viability was calculated as the percentage of that in the cells treated with a vehicle only.
After 24 h, cell viability was examined by WST-8 assay. The cell viability was calculated as a percentage of the number of cells after treatment with a solvent only. The results shown are means ± SD of three technical replicates.

[2] = molecular target: T1, CYP2D6 (Homo sapiens, UniProt P10635); assay: CYP2D6 inhibition in CYPs–UGT1A1 KI-HepG2 cells (1′-hydroxy bufuralol formation, HPLC); format: in vitro ADME
T1 construct: P2A self-cleaving peptide (upstream linker from CYP2C9) (N); T2A self-cleaving peptide (linker to HygR) (C); expressed in transfected cells
T1 sequence (P10635 whole entry): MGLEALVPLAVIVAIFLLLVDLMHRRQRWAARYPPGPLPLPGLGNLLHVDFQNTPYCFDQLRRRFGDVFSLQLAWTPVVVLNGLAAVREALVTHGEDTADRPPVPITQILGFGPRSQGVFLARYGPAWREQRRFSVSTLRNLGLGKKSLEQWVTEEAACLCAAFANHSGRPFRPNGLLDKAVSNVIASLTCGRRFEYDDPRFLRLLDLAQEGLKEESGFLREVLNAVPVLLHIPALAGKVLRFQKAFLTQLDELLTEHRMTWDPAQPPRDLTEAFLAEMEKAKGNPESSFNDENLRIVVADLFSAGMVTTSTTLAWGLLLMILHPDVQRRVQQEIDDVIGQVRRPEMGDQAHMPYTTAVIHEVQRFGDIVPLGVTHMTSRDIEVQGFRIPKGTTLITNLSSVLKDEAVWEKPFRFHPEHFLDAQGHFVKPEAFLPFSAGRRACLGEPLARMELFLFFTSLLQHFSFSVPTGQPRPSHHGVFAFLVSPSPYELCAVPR
Description: (§1) The cells were cultured on 48-well plates, then washed with pH 7.4 HBSS containing 10 mM HEPES and 25 mM glucose. […] After preincubation, HBSS containing 10 μM phenacetin, 10 μM diclofenac, 50 μM S-mephenytoin, 1 μM bufuralol, 10 μM midazolam, 10 μM 7′-hydroxy coumarin, or 1 μM propranolol was added, and the cells were incubated at 37 ℃ for 360 min. […] The samples were collected from the supernatant, then immediately mixed with the same volume of acetonitrile. The mixed solutions were centrifuged for 5 min at 15,000× g. […] HPLC analysis was performed using a LO-20AD SPD + RF (DGU-20A, LC-20AD, RF-20A xs, SIL-20AC, CBM-20A, SPD-20A, CTO-20AC; Shimadzu). The concentrations of each metabolite were calculated according to the respective standard followed by normalization to the protein content per well.
(§2) A value of p < 0.05 was considered statistically significant. Using the SigmaPlot v.
(§3) The quantity of metabolites (4′-hydroxy diclofenac, 1′-hydroxy bufuralol, and 1′-hydroxy midazolam; these compounds are metabolites for CYP2C9, 2D6, and 3A4, respectively) were measured by HPLC. Data represent the means ± SD (n = 3, technical replicates). Statistical analyses were performed using the unpaired two-tailed Student’s t test (** p < 0.01). […]

[3] = test system: WT-HepG2 cells; assay: Propranolol metabolite formation in WT-HepG2 cells (HPLC); format: in vitro ADME, human; conditions: 1 μM propranolol, 360 min
Description: Figure 5 Major metabolites of propranolol formed by the CYPs–UGT1A1 KI-HepG2 cells. […] Data are means ± SD of three technical replicates. N.D., not detected.

[4] = molecular target: CYP2C9 (Homo sapiens, UniProt P11712)
Sequence of CYP2C9 (P11712 whole entry): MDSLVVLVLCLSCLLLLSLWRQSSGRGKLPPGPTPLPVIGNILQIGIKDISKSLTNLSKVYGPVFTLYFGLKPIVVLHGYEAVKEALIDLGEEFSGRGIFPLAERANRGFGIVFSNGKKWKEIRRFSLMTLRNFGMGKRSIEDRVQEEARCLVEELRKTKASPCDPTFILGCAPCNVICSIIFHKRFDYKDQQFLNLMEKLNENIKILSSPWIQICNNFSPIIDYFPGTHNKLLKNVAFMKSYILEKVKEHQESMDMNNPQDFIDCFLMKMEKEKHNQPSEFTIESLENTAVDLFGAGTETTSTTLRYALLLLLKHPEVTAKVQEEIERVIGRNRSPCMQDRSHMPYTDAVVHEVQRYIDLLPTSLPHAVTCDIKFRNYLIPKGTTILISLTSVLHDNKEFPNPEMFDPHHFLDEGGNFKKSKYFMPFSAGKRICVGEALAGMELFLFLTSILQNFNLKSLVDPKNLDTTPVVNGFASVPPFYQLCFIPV
Description: as §1, §2, §3

[5] = test system: CYPs–UGT1A1 KI-HepG2 cells; assay: Propranolol metabolite formation in CYPs–UGT1A1 KI-HepG2 cells (HPLC); format: in vitro ADME, human; conditions: 1 μM propranolol, 360 min

In the case of `CCc1oc2ccccc2c1C(=O)c1cc(Br)c(O)c(Br)c1` [benzbromarone], the “Cell viability of CYPs–UGT1A1 KI-HepG2 cells compared with WT-HepG2 cells” value (“Cell viability … compared with WT-HepG2 cells” below) [1] is reported as “lower”.

In the case of `CN(C/C=C/C#CC(C)(C)C)Cc1cccc2ccccc12` [terbinafine], the “CYP2D6 activity in the presence of the inhibitor” value ([2]; 10 μM inhibitor, 1 μM bufuralol, p < 0.01) is reported as “significantly decreased” and the IC50 ([2]; substrate 1 μM bufuralol, inhibitor 0.03-10 μM, 30 min preincubation, 360 min incubation) is reported as 63.5 nM.

`CN(C)CCCN1c2ccccc2CCc2ccccc21` [imipramine] was tested, and the “Cell viability … compared with WT-HepG2 cells” value [1] was “lower”.

In the case of `CC(=O)Nc1ccc(O)cc1` [acetaminophen], the “Cell viability … compared with WT-HepG2 cells” value [1] is reported as “lower”.

For `CC(C)NCC(O)COc1ccc(O)c2ccccc12` (centres unmarked) [4′-hydroxy propranolol], the “Metabolite of propranolol formed (detection by HPLC)” value (“Metabolite of propranolol formed” below) [3] was “undetectable”.

With `CC(C)NCC(O)COc1cccc2c(O)cccc12` (centres unmarked) [5′-hydroxy propranolol] the “Metabolite of propranolol formed” value [3] was “undetectable”.

For `Cc1c(C)c2c(c(C)c1O)CCC(C)(COc1ccc(CC3SC(=O)NC3=O)cc1)O2` (centres unmarked) [troglitazone], the “Cell viability … compared with WT-HepG2 cells” value [1] was “lower”.

In the case of `Nc1ccc(S(=O)(=O)Nc2ccnn2-c2ccccc2)cc1` [sulfaphenazole], the “CYP2C9 activity in the presence of the inhibitor” value [4] is reported as “significantly decreased”.

With `NCC(O)COc1cccc2ccccc12` (centres unmarked) [desisopropylpropranolol] the “Metabolite of propranolol formed” value [3] was “undetectable” and the “Metabolite of propranolol formed” value [5] was “present at detectable levels”.
